The target in the experiment is T1, S. cerevisiae adenylyl cyclase (Ras Dependent, strain FlD reconstituted with purified Ras) (Saccharomyces cerevisiae, UniProt P08678).
T1 construct: Since these membranes contain adenylyl cyclase, but are lacking Ras protein; endogenous in cells; host or cells: membranes of S. cerevisiae strain FlD
Nature of the experiment: Yeast adenylyl cyclase assay, reconstitution of FlD membranes with purified Ras protein. The format is biochemical. The conditions noted are these: part B, FlD membranes with 5 µM purified Ras protein, peptide 10 µM. The source says: Another Ras-dependent enzymatic assay was used to extend the observed ability of the peptides of the present invention to inhibit Ras function. This system, yeast adenylyl cyclase assay, measures the Ras-dependent conversion of ATP into cyclic AMP (cAMP). […] Furthermore, in S. cerevisiae, regulation of cAMP metabolism appears to be a major function of Ras. This assay system was used to extend the observed Ras inhibitory activity of the peptides of the present invention, to a Ras function which is GAP-unrelated. S. cerevisiae strain FlD lacks functional Ras proteins, however FlD cells have functional adenylyl cyclase in their cell membrane. […] Similarly, a recombinant S. cerevisiae strain MY1186, lacks yeast Ras proteins but expresses mammalian Ras protein which functions with adenylyl cyclase to regulate cAMP metabolisim in the yeast cells. […] In contrast, S. cerevisiae strain JC377-10B contains a mutant form of adenylyl cyclase which constitutively converts ATP into cAMP with or without Ras.
Ras peptides were tested at the indicated concentrations for inhibition of S. cerevisiae adenylyl cyclase activity. […] Ras-independent activity was assayed with membranes from strain JC377-10B (ras-minus, constitutively active adenylyl cyclase).
Yeast strain FlD, MY1186 and JC377-10B, were grown in YEHD medium at 30°C. Membrane fractions were prepared from cultures grown to an A₆₆₀ of 0.5 to 1.0 by glusulase digestion [Casperson, G.F. et al., (1983), J. Biol. Chem., 258, pp. 7911-7914], Dounce homogenization of the spheroplasts in buffer containing 50 mM sodium MES [2(N-morpholino) ethanesulfonic acid] […] Adenylyl cyclase assays (100-µL reaction volume) measured the conversion of [α-³²P]ATP to [³²P]cAMP at 30°C, using 50 µg to 100 µg of membrane protein in assays using membranes from yeast strains MY1186 and JC377-10B.. […] Since these membranes contain adenylyl cyclase, but are lacking Ras protein, stimulation of adenylyl cyclase activity may be measured following reconstitution with purified Ras complexed with GTP. […]

No end group written: not given here.

T1 sequence (P08678 whole entry): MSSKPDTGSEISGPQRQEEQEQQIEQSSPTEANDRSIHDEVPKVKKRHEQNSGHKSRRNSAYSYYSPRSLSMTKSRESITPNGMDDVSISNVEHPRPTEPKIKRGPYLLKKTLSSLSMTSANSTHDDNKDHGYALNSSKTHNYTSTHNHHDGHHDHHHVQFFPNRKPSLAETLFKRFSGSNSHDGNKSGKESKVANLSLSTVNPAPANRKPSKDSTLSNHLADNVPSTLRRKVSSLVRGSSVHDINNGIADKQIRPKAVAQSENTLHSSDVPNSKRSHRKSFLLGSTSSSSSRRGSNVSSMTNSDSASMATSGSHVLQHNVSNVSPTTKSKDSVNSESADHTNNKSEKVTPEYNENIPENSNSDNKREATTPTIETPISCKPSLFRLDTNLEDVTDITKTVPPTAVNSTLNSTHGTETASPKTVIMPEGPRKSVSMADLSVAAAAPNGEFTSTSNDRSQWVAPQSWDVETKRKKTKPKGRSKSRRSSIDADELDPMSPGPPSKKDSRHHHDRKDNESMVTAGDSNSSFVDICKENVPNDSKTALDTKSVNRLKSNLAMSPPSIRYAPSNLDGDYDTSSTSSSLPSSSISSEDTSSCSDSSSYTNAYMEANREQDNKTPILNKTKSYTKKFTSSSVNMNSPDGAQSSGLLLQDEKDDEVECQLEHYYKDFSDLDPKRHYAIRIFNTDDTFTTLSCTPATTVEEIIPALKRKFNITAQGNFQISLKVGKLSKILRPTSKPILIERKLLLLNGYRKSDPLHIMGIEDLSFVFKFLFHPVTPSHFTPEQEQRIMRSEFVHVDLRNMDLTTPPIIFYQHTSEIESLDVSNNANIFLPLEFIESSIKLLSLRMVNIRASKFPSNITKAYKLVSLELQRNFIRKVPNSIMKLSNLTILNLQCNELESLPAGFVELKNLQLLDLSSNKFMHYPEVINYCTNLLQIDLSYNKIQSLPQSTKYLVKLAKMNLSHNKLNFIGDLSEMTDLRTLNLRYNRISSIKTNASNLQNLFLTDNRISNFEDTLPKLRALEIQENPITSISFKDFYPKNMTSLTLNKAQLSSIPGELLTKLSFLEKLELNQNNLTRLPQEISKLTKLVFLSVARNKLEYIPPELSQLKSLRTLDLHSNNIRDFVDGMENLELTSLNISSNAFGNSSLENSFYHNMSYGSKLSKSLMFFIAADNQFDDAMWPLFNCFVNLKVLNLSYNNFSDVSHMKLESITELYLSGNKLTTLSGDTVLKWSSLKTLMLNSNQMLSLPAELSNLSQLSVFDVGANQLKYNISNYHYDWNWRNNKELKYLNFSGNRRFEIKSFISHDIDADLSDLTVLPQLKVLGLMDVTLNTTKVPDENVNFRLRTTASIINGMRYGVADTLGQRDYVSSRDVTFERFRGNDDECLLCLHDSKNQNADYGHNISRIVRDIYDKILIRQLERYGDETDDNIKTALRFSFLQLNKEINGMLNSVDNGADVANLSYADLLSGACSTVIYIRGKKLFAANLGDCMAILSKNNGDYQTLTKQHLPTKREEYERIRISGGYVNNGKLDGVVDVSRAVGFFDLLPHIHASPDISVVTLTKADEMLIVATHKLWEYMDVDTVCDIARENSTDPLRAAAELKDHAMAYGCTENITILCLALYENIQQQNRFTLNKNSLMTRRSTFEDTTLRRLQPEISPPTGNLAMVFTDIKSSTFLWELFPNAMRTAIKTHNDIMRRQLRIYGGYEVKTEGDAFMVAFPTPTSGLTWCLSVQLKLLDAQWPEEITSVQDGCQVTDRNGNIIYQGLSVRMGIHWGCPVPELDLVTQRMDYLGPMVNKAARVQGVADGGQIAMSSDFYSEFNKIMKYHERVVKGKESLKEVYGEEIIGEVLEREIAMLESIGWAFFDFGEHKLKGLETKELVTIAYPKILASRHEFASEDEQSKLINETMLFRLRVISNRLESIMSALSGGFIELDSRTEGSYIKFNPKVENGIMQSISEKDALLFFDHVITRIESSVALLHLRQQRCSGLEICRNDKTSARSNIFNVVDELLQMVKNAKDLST

As for “GQEEYSAMRDQYMRTGE [Ras 60-76, reference compound]”, the “%Inhibition of Adenylyl Cyclase Activity Ras Dependent” value is reported as 6 ± 1%.

The values above are taken from patent EP0496162A2, “Peptide inhibitors of RAS-GAP interaction” (MERCK & CO. INC., priority 1990, dated 1992).
